Source: patent US20130034613A1, “FORMULATIONS OF PHOSPHITES” (Ceradis B.V., priority 2009, published 2013)

Key:
Type in all cases: in vivo
[1] = tested on: grapevine cultivar Merlot; test: Phytotoxicity towards grapevine after spraying; conditions: summary of Table 4
From the text: (§1) The experimental design is a randomized block design with a plot size of 3 plants per plot. The experiment has 4 replications. Plants are sprayed with solution until run-off occurs. The composition and the dose rate of the different treatments are the same as in example 1.
Phytotoxicity is observed one week after spraying. Per plant, the percentage leaf area dead or showing phytotoxicity symptoms was estimated.

rose = test: Phytotoxicity towards rose after spraying (Example 2); conditions: summary of Table 3
From the text: as §1, with “1, except that calcium lignosulfonate was replaced by sodium lignosulfonate (Borresperse NA®, Borregaard LignoTech Ltd, Germany).” for “1.”
Phytotoxicity is observed one week after spraying. Per plant, the percentage leaf area dead or showing phytotoxicity symptoms is estimated.

[2] = tested on: garden cress (Lepidium sativum) seedlings; test: Phytotoxicity towards garden cress seedlings after spraying; conditions: summary of Table 2
Method: Two compositions of potassium phosphite are prepared, one with and one without calcium lignosulfonate (Borresperse CA®, Borregaard LignoTech Ltd, Germany). The formulation and the concentration in the spray solution are calculated in such a way that the dosage of phosphite is the same for both compositions (120 mM=14.4 g potassium phosphite/1 spray solution). A control is added in which the adjuvants alone (without lignosulfonate or phosphite) are tested.
Various adjuvants are added to the two compositions: alcohol ethoxylate (commercial product: Genapol EP 2584, Clariant, Germany), di-octyl sulfosuccinate (commercial product Emulsogen SF8, Clariant, Germany), quaternary ammonium surfactant (commercial product Geronol CF/PN-20N, Rhodia, France) and ethoxylated tallow amine (commercial product Ethomeen S25, Akzo Nobel, The Netherlands). All adjuvant products arc added at a concentration of 5 g/l spray solution. For both compositions, a control is added without adjuvant.
Garden cress seedlings are grown in plastic boxes (100 seeds/box) on mineral sand. Boxes were kept at 22° C. One week old seedlings are sprayed with the various spray solutions until run-off of the solutions occurs. Phytotoxicity is observed three days after spraying. The percentage of seedlings dead or showing phytotoxicity symptoms is estimated. […]

Measured: phytotoxicity (in words)

potassium phosphite
phytotoxic: all assays above
